Laboratory results from ChEMBL document CHEMBL1126430, “The role of arginine in interactions of microcystins with protein phosphatases 1 and 2a” (Bioorg Med Chem Lett, 1992).
Starred links: 1 amine or outer side, 2 acyl side, 3 side chain; linkers in the order of their positions; H or OH if unused. Positions of bridges follow the written chain, without caps; N, C: chain ends. Non-standard residues stand in square brackets, D forms with d. Residues, ends and D or L forms follow the SMILES beside them. Adda = CO[C@@H](Cc1ccccc1)[C@@H](C)/C=C(C)/C=C/[C@H](N[*:1])[C@H](C)C(=O)[*:2]; dAsp(3S-Me) = C[C@H](C(=O)[*:3])[C@@H](N[*:1])C(=O)[*:2]; d(γGlu) = O=C(O)[C@@H](CCC(=O)[*:2])N[*:1]; NMeDha = C=C(NC)C(=O)O

Columns and labels:
[1] = Compound was evaluated for the ability to inhibit dephosphorylation of [32P]phosphorylase by Protein phosphatase 1
[2] = Compound was evaluated for the ability to inhibit dephosphorylation of [32P]phosphorylase by protein phosphatase 2A (PP2A)
[3] = Compound was evaluated for the ability to inhibit specific [3H]-okadaic acid binding to protein phosphatase 2A (PP2A)
[4] = Compound was evaluated for the ability to inhibit specific [3H]-okadaic acid binding to Protein phosphatase 1
[5] = Effective dose that causes 50 % inhibition of protein phosphatase 2A (PP2A), isolated from mouse skin

| Structure (SMILES) | ED50 [1] [nM] | ED50 [2] [nM] | ED50 [3] [nM] | ED50 [4] [nM] | ED50 [5] [nM] |
| --- | --- | --- | --- | --- | --- |
| C=C1C(=O)N[C@H](C)C(=O)N[C@@H](CC(C)C)C(=O)N[C@@H](C(=O)O)[C@H](C)C(=O)N[C@@H](CCCNC(=N)N)C(=O)N[C@@H](/C=C/C(C)=C/[C@H](C)[C@H](Cc2ccccc2)OC)[C@H](C)C(=O)N[C@@H](C(=O)O)CCC(=O)N1C (R[Adda][d(γGlu)][NMeDha][dA]L[dAsp(3S-Me)]-OH; lactam N-7) | 0.44 | 0.32 | 5.2 | 7.8 | 0.8 |
| CC=C1C(=O)N[C@@H](C(=O)O)[C@H](C)C(=O)N[C@@H](CCCNC(=N)N)C(=O)N[C@@H](/C=C/C(C)=C/[C@H](C)[C@H](Cc2ccccc2)OC)[C@H](C)C(=O)N[C@@H](C(=O)O)CCC(=O)N1C |  |  |  |  | 0.9 |
| C=C1C(=O)N[C@H](C)C(=O)N[C@@H](CC(C)C)C(=O)N[C@@H](C(=O)O)[C@H](C)C(=O)N[C@@H](C)C(=O)N[C@@H](/C=C/C(C)=C/[C@H](C)[C@H](Cc2ccccc2)OC)[C@H](C)C(=O)N[C@@H](C(=O)O)CCC(=O)N1C (A[Adda][d(γGlu)][NMeDha][dA]L[dAsp(3S-Me)]-OH; lactam N-7) | 0.9 | 0.38 | 10 | 10.6 |  |
